# Source: US10610517B2, “Compositions and methods for treating neoplastic diseases” (Celgene International II Sàrl, priority 2004, dated 2020)
# Assays:
# Bax = experiment: Immunoblot of Bax in mitochondrial protein extracts; type: cell-based, human; settings: MM.1S cells; FIG. 12E
# Procedure: Immunoblot analysis was performed using antibodies to cytochrome-c, Smac, Caspase-8, -9, or -3 (Cell Signaling, Beverly, Mass.), tubulin (Sigma, St. Louis, Mo.), PARP, Hsp60, or Bax (BD Bioscience Pharmingen, San Diego, Calif.). Blots were developed by enhanced chemiluminesence (ECL; Amersham, Arlington Heights, Ill.).
# Previous studies have established that Bax induces mitochondrial apoptotic pathway. See Wei, M. C., Zong, W. X., Cheng, E. H., Lindsten, T., Panoutsakopoulou, V., Ross, A. J., Roth, K. A., MacGregor, G. R., Thompson, C. B. & Korsmeyer, S. J. (2001) Science 292, 727-30 and Lei, K., Nimnual, A., Zong, W. X., Kennedy, N. J., Flavell, R. A., Thompson, C. […] Thus, whether MM cell apoptosis induced by the compound of formula (II) (X=Cl) correlates with alterations in Bax was evaluated. […] Blots are representatives of three independent experiments.
# [1] = system: Chymotrypsin-like proteasome activity; type: cell-based, human; settings: data not shown
# Source text: Whether the compound of formula (II) or Bortezomib alters proteasome activity in normal lymphocytes and skin fibroblasts was also examined.
# [2] = system: MM.1S, MM.1R, RPMI-8226, Dox-40, OPM2 and U266 cells; experiment: MTT cell viability of MM cell lines; type: cell-based, human; settings: 24 h, range over all six cell lines; FIG. 5A
# Source text: Results are mean±S.D from three independent experiments (P<0.005; n=3 for all Cell lines).
# MM.1S cells = experiment: cells; settings: for viable cells: FIG. 12D
# Source text: MM.1S cells were also transiently transfected using Cell line Nucleofecto kit V, according to the manufacturer's instructions (Amaxa Biosystems, Germany), with vector alone, DN-caspase-8, DN-caspase-9, or DN-FADD and cotransfected with vector containing green fluorescence protein (GFP) alone.
# It was next determined whether inhibition of an upstream signaling pathway that leads to caspase-8 activation affects the response to the compound of formula (II) (X=Cl) or Bortezomib. The Fas-associated death domain (FADD) protein is an important part of the deathinducing signaling complexes (DISCs) that assemble upon engagement of TNF receptor family members, such as Fas, resulting in proteolytic processing and autoactivation of pro-caspase-8. Since both the compound of formula (II) (X=Cl) and Bortezomib trigger caspase-8 activation, the role of FADD during this event in MM cells was evaluated using DN-FADD.
# [3] = system: purified (CD138-positive) patient MM cells; experiment: DNA fragmentation apoptosis assay on purified patient MM cells
# [4] = system: Lymphocytes from five healthy donors; experiment: MTT cytotoxicity on normal lymphocytes
# Source text: Bortezomib therapy is associated with toxicity in patients. […] Results are the mean±SD of three independent experiments.
# [5] = target: T1, human erythrocyte-derived 20S proteasome (Homo sapiens, UniProt P28072+P28074+Q99436); experiment: In vitro 20S proteasome activity assay; type: biochemical; settings: Suc-LLVY-AMC, Z-LLE-AMC, Boc-LRR-AMC substrates; FIG. 1
# T1 construct: Purified human erythrocyte-derived 20S proteasome were obtained from Biomol; purchased Biomol, Plymouth Meeting, Pa; host or cells: purified from human erythrocytes
# Procedure: The chymotrypsin-like activity of the 20S proteasome was measured as described in Stein, R. L., Melandri, F. & Dick, L. (1996) Biochemistry 35, 3899-908 and Lightcap, E. S., McCormack, T. A., Pien, C. […] Purified human erythrocyte-derived 20S proteasome were obtained from Biomol, Plymouth Meeting, Pa. The chymotrypsin-like, caspase-like and trypsin-like activity activities of the 20S proteasome were determined using Suc-LLVY-AMC, Z-LLE-AMC (Boston Biochem, Cambridge, Mass.) and Boc-LRR-AMC (Bachem Bioscience, King of Prussia, Pa.) as peptide substrates, respectively. Fluorescence of the cleaved peptide substrate was measured using a Fluoroskan Ascent 96-well microplate reader (Thermo Electron, Waltham, Mass.). The EC50 values were calculated by Prism (GraphPad Software) using a sigmoidal dose-response, variable slope model. The EC50 values were defined as the drug concentration at which 50% of the maximal relative fluorescence is inhibited.
# [6] = system: Mouse embryonic fibroblast (MEFs); experiment: MTT viability of MEFs with wild-type or knock-out Bax; type: cell-based; settings: 48 h; FIG. 12F
# Source text: Results are mean±SD of three independent experiments (P<0.05).
# [7] = target: proteasome β-5, β-2, β-1 subunits in MM.1S MM cells (Homo sapiens, UniProt P28072+P28074+Q99436); experiment: Competition experiment with AdaY(125I)Ahx3L3VS in MM.1S cells; type: cell-based; settings: 7 nM
# Procedure: Determination of whether the compound of formula II (X=Cl) affects the proteasome activity in multiple myeloma cells in vitro was made using a competition experiment with AdaY^125Iahx3L3VS. In this assay, sites that are not targeted by the compound of formula II (X=Cl) are labeled by AdaY(^125I)Ahx3L3VS and visualized by autoradiography, while sites that are targeted by the compound of formula II (X=Cl) can not be seen on the autoradiogram. […] 60 μg of protein extracts was incubated for 2 h with the iodinated proteasome inhibitor AdaY^125Iahx3L3VS at 37° C. Proteins were then denatured by boiling in reducing sample buffer and separated on a 12.5% SDS-PAGE gel, followed by autoradiography.
structure (smiles),measurement,setting,value
CC12OC(=O)C1(C(O)C1C=CCCC1)NC(=O)C2CCCl (centres unmarked) [compound of formula (II) (X=Cl)],Bax levels in mitochondria,Bax,"little, if any increase in Bax levels in mitochondria"
same,inhibition of Chymotrypsin-like proteasome activity,[1]; 20 nM,99%
same,proteasome activity in CCD-27sk fibroblasts,[1]; treatment at the IC50,inhibited proteasome activity
same,IC50,[2],7 to 24 nM
same,viable cells,MM.1S cells; DN-FADD-transfected MM.1S cells,76%±5.1
same,effect of caspase-8 blockade on triggered cell death,"MM.1S cells; IETD-fmk, FIG. 12A",significant decrease in cell death
same,effect of caspase-9 inhibition on decreased viability,"MM.1S cells; LEHD-FMK, FIG. 12A",only moderately blocked
same,IC50,"MM.1S cells; MM.1S cells, concentration used for treatment",7 nM
same,survival of DN-caspase-8-transfected compared to DN-caspase-9-transfected cells,"MM.1S cells; treated at IC50, FIG. 12B",markedly increased survival
same,viable cells,MM.1S cells; vector-transfected MM.1S cells,42%±2.0
same,effect of caspase-3 inhibition on induced apoptosis,"MM.1S cells; z-VAD-fmk, FIG. 12A",markedly abrogates
same,apoptosis by DNA fragmentation assay,"[3]; 10 nM, 24 h, nine relapsed MM patients, FIG. 5B",significant apoptosis
same,increase in apoptosis,"[3]; CD138+ cells of two patients, 20 nM, 24 h, FIG. 6",10-12 fold
same,IC50 for MM cells,[3]; stated in words,within the nanomolar concentration
same,viability of normal lymphocytes,"[4]; 72 h, 0-20 nM (compound even at 20 nM; Bortezomib at 6-10 nM), FIG. 13",does not significantly decrease the survival of normal lymphocytes
same,effect on normal lymphocytes at the IC50 of patient MM cells,[4]; in words,no effect on normal lymphocytes
same,"inhibition of chymotrypsin-like, caspase-like and trypsin-like activities of the 20S proteasome",[5],inhibits all three proteasome activities
same,cell viability in Bax (WT) and Bax (knock-out) MEFs,[6],decreases viability in both Bax (WT) and Bax (knock-out)
same,labeling of β-5 subunit by AdaY(125I)Ahx3L3VS,"[7]; 30 mins to 6 h, FIG. 3",markedly less labeled
same,labeling of β-2 and β-1 subunits by AdaY(125I)Ahx3L3VS,"[7]; 6 h, data not shown",decreased the labeling of the β-2 subunits (tryptic-activity) and the β-1 subunits (caspase-like activity)
